Source: patent US20210161997A1, “TREATING DISEASES VIA TARGETED MODULATION OF GENE SIGNALING NETWORKS” (Camp4 Therapeutics Corporation, priority 2018, published 2021)
Where a name gives a salt, the structure may show the parent alone.

Tested on: ANGPTL3
Assay: RNA-seq of ANGPTL3 expression in compound-treated primary human hepatocytes
Assay type: cell-based
Settings: additional compounds (Table 13), linear fold change
Protocol: Human hepatocytes were obtained from two donors from Massachusetts General Hospital, namely MGH54 and MGH63, and one donor from Lonza, namely HUM4111B. Cryopreserved hepatocytes were cultured in plating media for 16 hours, transferred to maintenance media for 4 hours. Cultured on serum-free media for 2 hours, then a compound was added. The hepatocytes were maintained on the serum-free media for 16 hours prior to gene expression analysis. Primary human hepatocytes were stored in the vapor phase of a liquid nitrogen freezer (about −130° C.).
Human hepatocytes cultured as described above were plated in 24-well format, adding 375,000 cells per well in a volume of 500 ul plating medium. Four hours before treatment, cells were washed with PBS and the medium was changed to either: fresh maintenance medium (complete) or modified maintenance medium.
Compound stocks were prepared at 1000× final concentration and added in a 2-step dilution to the medium to reduce risk of a compound precipitating out of solution when added to the cells, and to ensure reasonable pipetting volumes. One at a time, each compound was first diluted 10-fold in warm (about 37° C.) modified maintenance medium (initial dilution=ID), mixed by vortexing, and the ID was diluted 100-fold into the cell culture (e.g. 5.1 ul into 1 well of a 24-well plate containing 0.5 mL medium). The plate was mixed by carefully swirling and after all wells were treated and returned to the incubator overnight. If desired, separate plates/wells were treated with vehicle-only controls and/or positive controls. If using multi-well plates, controls were included on each plate. After about 18 hours, cells were harvested for further analysis, e.g., ChIP-seq, RNA-seq, ATAC-seq, etc.
This protocol is a modified version of the following protocols: MagMAX mirVana Total RNA Isolation Kit User Guide (Applied Biosystems #MAN0011131 Rev B.0), NEBNext Poly(A) mRNA Magnetic Isolation Module (E7490), and NEBNext Ultra Directional RNA Library Prep Kit for Illumina (E7420) (New England Biosystems #E74901).
The MagMAX mirVana kit instructions (the section titled “Isolate RNA from cells” on pages 14-17) were used for isolation of total RNA from cells in culture. Two hundred μl of Lysis Binding Mix was used per well of the multiwell plate containing adherent cells (usually a 24-well plate).
For mRNA isolation and library prep, the NEBNext Poly(A) mRNA Magnetic Isolation Module and Directional Prep kit was used. RNA isolated from cells above was quantified, and prepared in […] of each sample in 50 μl of nuclease-free water. This protocol may be run in microfuge tubes or in a 96-well plate.
All pass filter reads from each sample were mapped against the human genome (assembly GRCh38/GCA_000001405.15 “no alt” analysis set merged with hs38d1/GCA_000786075.2) using two pass mapping via STAR version 2.5.3a (alignment parameters alignIntronMin=20; alignIntronMax=1000000; outFilterMismatchNmax=999; outFilterMismatchNoverLmax=0.05; outFilterType=BySJout; outFilterMultimapNmax=20; alignSJoverhangMin=8; alignSJDBoverhangMin=1; alignMatesGapMax=1000000) (Dobin et al., Bioinformatics (2012) 29(1):15-21). Genomic alignments were converted to transcriptome alignments based on reference transcript annotations from the Human GENCODE Gene Set release 24 (Harrow et al., Genome Res. (2012) 22(9): 1760-1774). Using unique and multimapped transcriptomic alignments, gene-level abundance estimates were computed using RSEM version 1.3.0 (Li and Dewey, BMC Bioinformatics (2011) 12:323) in a strand-aware manner, and including confidence interval sampling calculations, to arrive at posterior mean estimates (PME) of abundances (counts and normalized FPKM—fragments per kilobase of exon per million mapped fragments) from the underlying Bayesian model. Standard QC were applied (read integrity, mapping statistics, library complexity, fragment bias) to remove unsatisfactory samples.

Row | SMILES | ANGPTL3-LINEAR FOLD CHANGE
1 | Cl.Clc1cccc(N2CCNCC2)c1 [1(3-Chlorophenyl)piperazine HCl] | 0.4414
2 | CCN1CCN(Cc2ccc(-c3cc4c(N[C@H](C)c5ccccc5)ncnc4[nH]3)cc2)CC1 [AEE788 (NVP-AEE788)] | 0.1684
3 | COc1cc(N2CCC(N3CCN(C)CC3)CC2)ccc1Nc1ncnc(Nc2ccccc2S(=O)(=O)C(C)C)n1 [ASP3026] | 0.3923
4 | N#Cc1ccc2[nH]c(O)c(-c3ccc(CN4CCOCC4)cn3)c2c1 [AZD1080] | 0.2238
5 | COc1cc(C)c(/C=C/C(C)=C/C=C/C(C)=C/C(=O)O)c(C)c1C [Acitretin] | 0.4763
6 | Nc1ncn([C@@H]2O[C@H](CO)[C@@H](O)[C@H]2O)c(=O)n1 [Azacitidine] | 0.2316
7 | CC[C@@H]1C(=O)N(C)c2cnc(Nc3ccc(C(=O)NC4CCN(C)CC4)cc3OC)nc2N1C1CCCC1 [BI 2536] | 0.2045
8 | CC(C)NC(=O)C1CCC(n2c(NC(=O)c3ccc(F)cc3)nc3ccc(CN4CCC(C(C)(C)O)CC4)cc32)CC1 (stereo not drawn) [Belizatinib (TSR-011), Belizatinib] | 0.3121
9 | COCCOCOc1cc2ccc(-c3ccc(C(=O)O)cc3)cc2cc1C12CC3CC(CC(C3)C1)C2 [CD 2665] | 0.395
10 | NC(=O)N[C@@H](CCC(=O)O)C(=O)O [Carglumic Acid] | 0.1975
11 | C[C@@H](NCCCc1cccc(C(F)(F)F)c1)c1cccc2ccccc12 [Cinacalcet HCl] | 0.3789
12 | O=C(c1ccc(F)c(F)c1Nc1ccc(I)cc1F)N1CC(O)([C@@H]2CCCCN2)C1 [Cobimetinib (GDC-0973, RG7420), Cobimetinib] | 0.2333
13 | CO[C@H]1C[C@@H]2CC[C@@H](C)[C@@](O)(O2)C(=O)C(=O)N2CCCC[C@H]2C(=O)O[C@H]([C@H](C)C[C@@H]2CC[C@@H](OCCO)[C@H](OC)C2)CC(=O)[C@H](C)/C=C(\C)[C@@H](O)[C@@H](OC)C(=O)[C@H](C)C[C@H](C)/C=C/C=C/C=C/1C [Everolimus (RAD001), Everolimus] | 0.483
14 | Cc1cnc(Nc2ccc(OCCN3CCCC3)cc2)nc1Nc1cccc(S(=O)(=O)NC(C)(C)C)c1 [Fedratinib (SAR302503, TG101348), Fedratinib] | 0.1119
15 | COCCCC/C(=N\OCCN)c1ccc(C(F)(F)F)cc1 [Fluvoxamine maleate] | 0.3231
16 | COc1cc2c(Oc3ccc(NC(=O)C4(C(=O)Nc5ccc(F)cc5)CC4)cc3F)ccnc2cc1OCCCN1CCOCC1 [Foretinib (GSK1363089), Foretinib] | 0.3368
17 | CCNC(=O)Nc1ccc(-c2nc3c(c(N4CCOC[C@@H]4C)n2)CCN(C2COC2)C3)cc1 [GDC-0349] | 0.4506
18 | C[C@@H](Oc1cc(-n2cnc3ccc(CN4CCN(C)CC4)cc32)sc1C(N)=O)c1ccccc1C(F)(F)F [GSK461364] | 0.3078
19 | CNc1nc(-c2ccc3c(N)n[nH]c3c2)cc(N2C[C@@H](C(=O)NC3CCCCC3)CC[C@H]2C)n1 [GSK2334470] | 0.4538
20 | O=C(O)Cc1cccc(OCCCN(Cc2cccc(C(F)(F)F)c2Cl)CC(c2ccccc2)c2ccccc2)c1 [GW3965] | 2.071
21 | c1ccc2c(CCNc3ccc(Nc4ccncc4)cc3)c[nH]c2c1 [JNJ-26854165 (Serdemetan), Serdemetan] | 0.1817
22 | Cc1c(OCC(F)(F)F)ccnc1C[S+]([O-])c1nc2ccccc2[nH]1 (stereo not drawn) [Lansoprazole] | 0.4763
23 | O=C1CCc2c(Oc3ccc4c(c3)[C@@H]3[C@H](O4)[C@H]3c3nc4ccc(C(F)(F)F)cc4[nH]3)ccnc2N1 [Lifirafenib (BGB-283), Lifirafenib] | 0.3585

Row | SMILES | ANGPTL3-LINEAR FOLD CHANGE
24 | O=C(O)c1ccc(Nc2ncc3c(n2)-c2ccc(Cl)cc2C(c2c(F)cccc2F)=NC3)cc1 [MLN8054] | 0.2755
25 | FC(F)(F)c1ccc(/C=C/c2nc(COc3ccc(CCCCn4ccnn4)cc3)co2)cc1 [Mubritinib (TAK 165), Mubritinib] | 0.3392
26 | COc1cc(N)c(Cl)cc1C(=O)NC1CCNCC1OC (stereo not drawn) [NORCISAPRIDE HYDROCHLORIDE] | 0.3763
27 | C=CC(=O)Nc1cccc(Oc2nc(Nc3ccc(N4CCN(C)CC4)cc3)nc3ccsc23)c1 [Olmutinib (HM61713, BI 1482694), Olmutinib] | 0.3057
28 | CNC(=O)c1ccc(C)c(-n2c(C)cc(OCc3ccc(F)cc3F)c(Br)c2=O)c1 [PH-797804] | 0.2736
29 | NCCC(O)(P(=O)(O)O)P(=O)(O)O [Pamidronate] | 0.1528
30 | N=C(N)c1ccc(OCCCCCOc2ccc(C(=N)N)cc2)cc1 [Pentamidine isethionate] | 0.1321
31 | CC(=O)c1ccc2c(c1)N(CCCN1CCC(CCO)CC1)c1ccccc1S2 [Piperacetazine] | 0.4033
32 | [H]/N=C(\N/C(=N/[H])Nc1ccc(Cl)cc1)NC(C)C [Proguanil] | 0.3536
33 | CCC[C@@H]1CC2=CC(=O)CC[C@]2(C)[C@H]2CC[C@@]3(C)[C@@H](CC[C@@]3(O)CCC(=O)[O-])[C@H]12.[K+] [RU 28318] | 0.4005
34 | Cc1nc2n(c(=O)c1CCN1CCC(c3noc4cc(F)ccc34)CC1)CCCC2 [Risperidone] | 0.3231
35 | C/C=C1\NC(=O)[C@H]2CSSCC/C=C/[C@H](CC(=O)N[C@H](C(C)C)C(=O)N2)OC(=O)[C@H](C(C)C)NC1=O [Romidepsin (FK228, Depsipeptide), Romidepsin] | 0.1349
36 | C[C@@H]1CN(Cc2ccc(F)cc2)[C@@H](C)CN1C(=O)c1cc2c(C(=O)C(=O)N(C)C)cn(C)c2cc1Cl [SCIO-469] | 0.3711
37 | Cc1cc(C)c(/C=C2\C(=O)Nc3ccccc32)[nH]1 [Semaxinib, Semaxanib] | 0.2449
38 | CCC(C)(C)C(=O)O[C@H]1C[C@@H](C)C=C2C=C[C@H](C)[C@H](CC[C@@H]3C[C@@H](O)CC(=O)O3)[C@H]21 [Simvastatin] | 0.2588
39 | Cc1c(C(=O)Nc2ccc(N3C[C@@H](C)O[C@@H](C)C3)nc2)cccc1-c1ccc(OC(F)(F)F)cc1 [Sonidegib (Erismodegib, NVP-LDE225), Sonidegib] | 0.4897
40 | CC(C)(Sc1cc(C(C)(C)C)c(O)c(C(C)(C)C)c1)Sc1cc(C(C)(C)C)c(OC(=O)CCC(=O)O)c(C(C)(C)C)c1 [Succinobucol] | 0.3896
41 | CC(C)(O)CC(=O)NCCn1ccc2ncnc(Nc3ccc(Oc4cccc(C(F)(F)F)c4)c(Cl)c3)c21 [TAK-285] | 0.3842
42 | CCc1nc(-c2cccc(C)c2)c(-c2ccnc(NC(=O)c3ccccc3)c2)s1 [TAK-715] | 0.4538
43 | CC/C(=C(\c1ccccc1)c1ccc(OCCN(C)C)cc1)c1ccccc1 [Tamoxifen] | 0.2606
44 | NC(=O)c1ccc(N(C(N)=O)c2c(F)cccc2F)nc1-c1ccc(F)cc1F [VX-702] | 0.4353
45 | O=C(CCCCCCC(=O)Nc1ccccc1)NO [Vorinostat (SAHA, MK0683), Vorinostat] | 0.3511
